Experimental data: patent US12036312B2, “Non-aqueous topical compositions comprising a halogenated salicylanilide” (priority 2016, dated 2024)
≈ marks a conversion by molar mass, not a printed value. Read-outs that look alike come from different tables or passages of the source.

Tests used:
S. aureus = experiment: Minimum inhibitory concentration (MIC) assay, Example 1, S. aureus strains; type: cell-based; details: Staphylococcus aureus
Source text: The methicillin-resistant S. aureus (MRSA) 01 strain was used as the primary test microorganism as a representative bacteria commonly found in skin infections. This strain is a community-acquired MRSA clinical isolate of USA 300 type, from a skin abscess.
(§1) Twenty-one other MRSA and methicillin-sensitive S. aureus strains, and 4 Streptococcus pyogenes strains, were also included in the study (Table 2). These covered fusidic acid- and mupirocin-resistant strains, these two types of resistance being of clinical relevance.
(§2) Strains were conserved in Luria Bertani (LB) Broth (S. aureus) or Brain Heart Infusion (BHI) (S. pyogenes) supplemented with glycerol 15% (v/v) at −80° C., and reactivated by isolation on LB (S. aureus) or BHI (S. pyogenes) agar plates. Strains were cultivated in Mueller Hinton (MH) Broth-cation adjusted (S. aureus) supplemented with lysed horse blood 2.5% (v/v) (S. pyogenes). All strains were cultivated at 37° C., aerobically for S. aureus strains.
(§3) Bacterial cultures were stopped in their exponential growth phase and plates were inoculated with the approximate concentration of 10^3 cells per well. Plates were incubated at 37° C. for 18 hours (S. aureus) or 24 hours (S. pyogenes). Optical density at a wavelength of 600 nm was measured at the end of the incubation time. […] Experiments were performed at least as triplicate biological replicates with all strains.

MRSA 01 [1] = experiment: Effect of pH on the antibacterial activity (MIC in pH-adjusted Mueller-Hinton Broth); type: cell-based, Staphylococcus aureus; details: for MIC: Staphylococcus aureus, MRSA
Description: Chosen for its relevance regarding bacterial skin infections, the methicillin-resistant S. aureus (MRSA) 01 strain was used. This strain is a community-acquired MRSA clinical isolate of USA 300 type, from a skin abscess.
This strain was conserved in Luria Bertani (LB) Broth supplemented with glycerol 15% (v/v) at −80° C., and reactivated by isolation on LB agar plates. It was then cultivated aerobically in Mueller Hinton (MH) Broth-cation adjusted at 37° C.
The pH of Mueller-Hinton Broth cation-adjusted was adjusted with HCl 2M to 7, 6.5, 6, 5.5, 5, 4.5 and […]. Ten ml of medium for each pH were prepared. The pH of non-adjusted MHBII was equal to 7.4.
Each pH-adjusted samples were filtered on 0.2 μm filters before being used for the MIC determination assay.
Bacterial culture was stopped in its exponential growth phase and plates were inoculated with the approximate concentration of 5×10^5 cells per well. Plates were incubated at 37° C. for 18 hours (S. aureus). Optical density at a wavelength of 600 nm was measured at the end of the incubation time.
The experiment was performed in triple biological replicates.

S. pyogenes [2] = experiment: MIC assay, Example 2, S. pyogenes strains (in BHI); type: cell-based, Streptococcus pyogenes; details: 4 strains
Description: Two-hundred-four other MRSA and methicillin-sensitive S. aureus strains, and 4 Streptococcus pyogenes strains, were also included in the study. These covered fusidic acid- and mupirocin-resistant strains, these two types of resistance being of clinical relevance.
Strains were conserved in Luria Bertani (LB) Broth (S. aureus) or Brain Heart Infusion (BHI) (S. pyogenes) supplemented with glycerol 15% (v/v) at −80° C., and reactivated by isolation on LB (S. aureus) or BHI (S. pyogenes) agar plates. Strains were cultivated in Mueller Hinton (MH) Broth-cation adjusted (S. aureus) or BHI (S. pyogenes). All strains were cultivated aerobically (microaerobically for S. pyogenes strains) at 37° C.
Bacterial cultures were stopped in their exponential growth phase and plates were inoculated with the approximate concentration of 5×10^5 cells per well. Plates were incubated at 37° C. for 18 hours (S. aureus) or 24 hours (S. pyogenes). Optical density at a wavelength of 600 nm was measured at the end of the incubation time.

[3] = system: MRSA 01, MRSA 15 (fusidic acid-resistant), MRSA 16 (mupirocin-resistant); experiment: Mutational frequency evaluation (spontaneous single-step mutations), Example 1; type: cell-based, Staphylococcus aureus; details: at MIC×1 (Example 1)
MRSA 01 [4] = experiment: Time-kill assay; type: cell-based, Staphylococcus aureus; details: initial inoculum 7 log10 cfu/ml, niclosamide 4 μg/ml [MIC×10]
Description: This assay was performed in 20 ml of medium. It included a negative control (medium without bacteria), a positive control (bacteria grown without niclosamide) and the assay (bacteria grown with niclosamide). […] This experiment was performed with the primary test microorganism indicated above.
The overnight culture was stopped and OD600 was measured. Culture was then diluted in indicated medium to obtain an OD600 of 0.25 in order to have about 5×10^8 cfu/ml. Two hundred μl of this diluted culture were then added in all conditions except in the negative control. Initial bacterial concentration was about 5×10^6 cfu/ml. Tubes were incubated aerobically at 37° C. for 24 hours.
Bacteria were enumerated before the incubation, after 30 minutes, 1, 2, 4, 8 and 24 hours of incubation by serial dilutions in NaCl 0.9% and plating on LB agar, with 2 plates per dilution. Plates were incubated at 37° C. and colonies enumerated after 24 hours.

S. pyogenes [5] = experiment: Minimum inhibitory concentration (MIC) assay, Example 1, S. pyogenes strains; type: cell-based; details: Streptococcus pyogenes, read-out: MIC
Description: as §1, §2, §3

O=C(Nc1ccc([N+](=O)[O-])cc1Cl)c1cc(Cl)ccc1O [Niclosamide, niclosamide]
MIC (S. aureus; MRSA, * tested against one strain: MRSA 01, read-out: Mic100 S. aureus): ≤ 0.4 µg/mL | MIC (S. aureus; MRSA, strain MRSA 01, read-out: MIC): 0.4 µg/mL (≈ 1.22 µM) | MIC (S. aureus; MRSA, strain MRSA 02, read-out: MIC): 0.2 µg/mL (≈ 0.611 µM) | MIC (S. aureus; MRSA, strain MRSA 03*, read-out: MIC): 0.4 µg/mL (≈ 1.22 µM) | MIC (S. aureus; MRSA, strain MRSA 04, read-out: MIC): 0.4 µg/mL (≈ 1.22 µM) | MIC (S. aureus; MRSA, strain MRSA 05, read-out: MIC): 0.2 µg/mL (≈ 0.611 µM) | MIC (S. aureus; MRSA, strain MRSA 06, read-out: MIC): 0.4 µg/mL (≈ 1.22 µM) | MIC (S. aureus; MRSA, strain MRSA 07, read-out: MIC): 0.2 µg/mL (≈ 0.611 µM) | MIC (S. aureus; MRSA, strain MRSA 08*, read-out: MIC): 0.4 µg/mL (≈ 1.22 µM) | MIC (S. aureus; MRSA, strain MRSA 09, read-out: MIC): 0.2 µg/mL (≈ 0.611 µM) | MIC (S. aureus; MRSA, strain MRSA 10, read-out: MIC): 0.4 µg/mL (≈ 1.22 µM) | MIC (S. aureus; MRSA, strain MRSA 11, read-out: MIC): 0.1 µg/mL (≈ 0.306 µM) | MIC (S. aureus; MRSA, strain MRSA 12*, read-out: MIC): 0.4 µg/mL (≈ 1.22 µM) | MIC (S. aureus; MRSA, strain MRSA 13*, read-out: MIC): 0.4 µg/mL (≈ 1.22 µM) | MIC (S. aureus; MRSA, strain MRSA 14*, read-out: MIC): 0.4 µg/mL (≈ 1.22 µM) | MIC (S. aureus; MRSA, strain MRSA 15*, read-out: MIC): 0.2 µg/mL (≈ 0.611 µM) | MIC (S. aureus; MRSA, strain MRSA 16*, read-out: MIC): 0.2 µg/mL (≈ 0.611 µM) | MIC (S. aureus; MRSA, strain MRSA 17*, read-out: MIC): 0.2 µg/mL (≈ 0.611 µM) | MIC (S. aureus; MSSA, strain MSSA 01*, read-out: MIC): 0.4 µg/mL (≈ 1.22 µM) | MIC (S. aureus; MSSA, strain MSSA 02*, read-out: MIC): 0.4 µg/mL (≈ 1.22 µM) | MIC (S. aureus; NEWMAN, strain Newman, read-out: MIC): 0.2 µg/mL (≈ 0.611 µM) | MIC (S. aureus; strain EEFIC 01*, read-out: MIC): 0.4 µg/mL (≈ 1.22 µM) | MIC (S. aureus; strain EEFIC 02*, read-out: MIC): 0.2 µg/mL (≈ 0.611 µM) | MIC (MRSA 01 [1]; MRSA 01, pH 7.0 (actual pH 7.071), Replicate 2): 0.125 µg/mL (≈ 0.382 µM) | MIC (MRSA 01 [1]; pH 7.4, MRSA 01, pH not adjusted (actual pH 7.4), Replicate 1): 0.5 µg/mL (≈ 1.53 µM) | MIC (MRSA 01 [1]; pH 7.4, MRSA 01, pH not adjusted (actual pH 7.4), Replicate 3): 0.5 µg/mL (≈ 1.53 µM) | inhibitory activity against MRSA 01 as a function of pH (MRSA 01 [1]; pH-adjusted Mueller-Hinton Broth): increased when pH was decreased | MIC distribution: percentage of Streptococcus pyogenes strains (S. pyogenes [2]; MIC 0.0625 μg/ml): 25% | MIC distribution: percentage of Streptococcus pyogenes strains (S. pyogenes [2]; MIC 0.5 μg/ml): 25% (1/4) | MIC distribution: percentage of Streptococcus pyogenes strains (S. pyogenes [2]; MIC […]): 25% (1/4) | mutational frequency [3]: < 4×10^−10 | bactericidal or bacteriostatic effect (MRSA 01 [4]): bacteriostatic effect | MIC (S. pyogenes [5]; ATCC12385, S. pyogenes strain ATCC 12385): 1.6 µg/mL (≈ 4.89 µM) | MIC (S. pyogenes [5]; ATCC19615, S. pyogenes strain ATCC 19615): 3.2 µg/mL (≈ 9.78 µM) | MIC (S. pyogenes [5]; CCUG25571, S. pyogenes strain CCUG 25571): 3.2 µg/mL (≈ 9.78 µM) | MIC (S. pyogenes [5]; S. pyogenes strain 01): 3.2 µg/mL (≈ 9.78 µM)
